# Patent US20060030616A1, “Anhydride modified cantharidin analogues useful in the treatment of cancer” (priority 1998, published 2006)
# Legend:
# Assay type in all cases: cell-based, human
# [1] = system: HT29 cells; experiment: Checkpoint abrogation after 6 Gy radiation, flow cytometry; settings: 12 h after drug
# Description: (§1) The cells are fixed in 70% ethanol and stored at −20° C. until analysis is performed (1-2 weeks). After fixing, the cells are pelleted and incubated in PBS containing propidium iodide ([…]) and RNase A (200 mg/ml) for at least 30 min at room temperature. The samples (2×10^4 events) are analysed using a Becton Dickson FACScan, fluorescence is collected in fluorescence detector 2 (FL2), filter 575/30 nm band pass. Cell cycle distribution is assessed using Cell Quest software (Becton Dickson).
# (§2) The ability of the protein phosphatase inhibitors to abrogate the G1 or G2 checkpoint of the cell cycle may be determined by cell cycle analysis using flow cytometry. Briefly, asynchronous cell cultures are harvested 18 h after 6 Gy irradiation and/or 12 h incubation with the protein phosphatase inhibitor. Depending upon the p53 status of the cell line, radiation treatment alone will induce arrest in either G1 and/or G2 phase of the cell cycle.
# (§3) If the protein phosphatase inhibitor abrogates the G2 checkpoint then the cells will not arrest in the G2 phase of the cell cycle and the cells will continue through the cell cycle and accumulate in the G1 phase of the cell cycle only. Similarily if the protein phosphatase inhibitors abrogates the G1 checkpoint then the cells will not arrest in the G1 phase of the cell cycle and accumulate in the G2 phase of the cell cycle only. Cell cycle analysis using propidium iodide labelling of DNA has been used extensively in our laboratory to assess the effect of specific anticancer agents that induce S-phase cell cycle arrest and apoptotic cell death (Sakoff, Ackland and Stewart, 1998). Experiments were performed on a Becton Dickinson FACScan and using Cell Quest software.
# (§4) The cells were treated with 6 Gy of radiation and then treated with cantharidin 6 h later. The ability to abrogate cell cycle arrest was assessed is 12 h after the addition of the drugs.
# [2] = system: HL60 cells; experiment: as above; settings: 12 h after drug
# Description: as §1, §2, §3, §4
# [3] = system: HCT116 cells; experiment: Combination studies, Median Effect Method (MTT); settings: simultaneous
# Description: (§5) Those protein phosphatase inhibitors which show abrogation of either the G1 or G2 checkpoint will then be exploited in combination studies with either radiation exposure or chemotherapy drugs incubation. The MTT (3-[4,5-dimethylthiazol-2-yl]2,5-diphenyl-tetrazolium bromide) assay is used to determine whether a synergistic, antagonistic or additive effect is induced. The Median Effect method is adopted to mathematically determine the optimal combination index of the treatments chosen (Chou and Talalay, 1984). This method has been extensively used to investigate the cytotoxicity of various drug combinations including cisplatin and D1694 (Ackland et al 1996; 1998). A combination index value less than 1 indicates synergism, a value equal to 1 indicates additivity and a value greater than one indicates antagonism.
# (§6) The cell lines listed above are exposed continuously to cisplatin and the phosphatase inhibitor in various drug ratio combinations for 72 h and then assayed for cytotoxicity; Similarly, the cells are exposed to 8 Gy of radiation and incubated with the phosphatase inhibitor and assessed for cytotoxicity at 72 h.
# (§7) This method tests the cytotoxicity of various drug combinations from which a combination index can be calculated. A value of greater than one indicated antagonism, a value equal to 1 indicates additivity, while a value less than one indicates synergism. The HT29 and HCT116 cell lines were chosen as they have differing p53 status and they represent the tumour types that responded the greatest to cantharidin and its analogues.
# [4] = system: HT29 cells; experiment: Combination studies, Median Effect Method (MTT); settings: simultaneous
# Description: as §5, §6, §7
# [5] = system: A2780 cells; experiment: MTT cytotoxicity assay, 72 h; settings: A2780, p53 wt; read-out: IC50 (mean ± SE) after 72 h continuous exposure
# Outline: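 Cells plated (L1210 at 1000 cells/well, others 2000-25000 cells/well) and grown 24 h before 72 h exposure to phosphatase inhibitors over […], in triplicate. MTT formazan absorbance at 540 nm; IC50 is the concentration giving 50% growth inhibition from the day 0 to day 3 optical density difference.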
compound,measurement,setting,value
O=C1OC(O)C2C3CCC(O3)C12 (centres unmarked) [MK-4],"Cell Cycle Distribution, G1","[1]; HT29, 50 μM, 18 h after 6Gy",28.9 percentage of total
same,"Cell Cycle Distribution, G2 + M","[1]; HT29, 50 μM, 18 h after 6Gy",48.4 percentage of total
same,"Cell Cycle Distribution, S","[1]; HT29, 50 μM, 18 h after 6Gy",16.4 percentage of total
same,"Cell Cycle Distribution, sub G","[1]; HT29, 50 μM, 18 h after 6Gy",6.8 percentage of total
same,"Cell Cycle Distribution, G1","[1]; HT29, 100 μM, 18 h after 6Gy",33.3 percentage of total
same,"Cell Cycle Distribution, G2 + M","[1]; HT29, 100 μM, 18 h after 6Gy",43.3 percentage of total
same,"Cell Cycle Distribution, S","[1]; HT29, 100 μM, 18 h after 6Gy",17.2 percentage of total
same,"Cell Cycle Distribution, sub G","[1]; HT29, 100 μM, 18 h after 6Gy",6.3 percentage of total
same,"Cell Cycle Distribution, G1","[1]; HT29, 250 μM, 18 h after 6Gy",35.2 percentage of total
same,"Cell Cycle Distribution, G2 + M","[1]; HT29, 250 μM, 18 h after 6Gy",36.5 percentage of total
same,"Cell Cycle Distribution, S","[1]; HT29, 250 μM, 18 h after 6Gy",17.3 percentage of total
same,"Cell Cycle Distribution, sub G","[1]; HT29, 250 μM, 18 h after 6Gy",10.3 percentage of total
same,"Cell Cycle Distribution, G1","[1]; HT29, 500 μM, 18 h after 6Gy",39.4 percentage of total
same,"Cell Cycle Distribution, G2 + M","[1]; HT29, 500 μM, 18 h after 6Gy",37.7 percentage of total
same,"Cell Cycle Distribution, S","[1]; HT29, 500 μM, 18 h after 6Gy",19.2 percentage of total
same,"Cell Cycle Distribution, sub G","[1]; HT29, 500 μM, 18 h after 6Gy",3.9 percentage of total
same,Checkpoint remark,"[1]; HT29, 500 μM, 18 h after 6Gy",G2 abrogation
same,Checkpoint abrogation,"[1]; HT29, 6 Gy",abrogation of the G2 checkpoint
same,"Cell Cycle Distribution, G1","[2]; HL60, 50 μM, 18 h after 6Gy",6.2 percentage of total
same,"Cell Cycle Distribution, G2 + M","[2]; HL60, 50 μM, 18 h after 6Gy",82.3 percentage of total
same,"Cell Cycle Distribution, S","[2]; HL60, 50 μM, 18 h after 6Gy",2.8 percentage of total
same,"Cell Cycle Distribution, sub G","[2]; HL60, 50 μM, 18 h after 6Gy",8.9 percentage of total
same,"Cell Cycle Distribution, G1","[2]; HL60, 100 μM, 18 h after 6Gy",6.2 percentage of total
same,"Cell Cycle Distribution, G2 + M","[2]; HL60, 100 μM, 18 h after 6Gy",80.8 percentage of total
same,"Cell Cycle Distribution, S","[2]; HL60, 100 μM, 18 h after 6Gy",3.4 percentage of total
same,"Cell Cycle Distribution, sub G","[2]; HL60, 100 μM, 18 h after 6Gy",9.8 percentage of total
same,"Cell Cycle Distribution, G1","[2]; HL60, 250 μM, 18 h after 6Gy",5.8 percentage of total
same,"Cell Cycle Distribution, G2 + M","[2]; HL60, 250 μM, 18 h after 6Gy",82.2 percentage of total
same,"Cell Cycle Distribution, S","[2]; HL60, 250 μM, 18 h after 6Gy",3.1 percentage of total
same,"Cell Cycle Distribution, sub G","[2]; HL60, 250 μM, 18 h after 6Gy",9.3 percentage of total
same,"Cell Cycle Distribution, G1","[2]; HL60, 500 μM, 18 h after 6Gy",5.2 percentage of total
same,"Cell Cycle Distribution, G2 + M","[2]; HL60, 500 μM, 18 h after 6Gy",78.2 percentage of total
same,"Cell Cycle Distribution, S","[2]; HL60, 500 μM, 18 h after 6Gy",5.4 percentage of total
same,"Cell Cycle Distribution, sub G","[2]; HL60, 500 μM, 18 h after 6Gy",11.6 percentage of total
same,Checkpoint remark,"[2]; HL60, 500 μM, 18 h after 6Gy",Cell Death
same,Checkpoint abrogation,"[2]; HL60, 6 Gy",abrogated G1 arrest
same,Combination response with taxotere,[3],synergistic
same,Combination response with cisplatin,"[3]; molar ratios 1:1, 10:1, 1:10",additive
same,Combination response with cisplatin,"[4]; molar ratios 1:1, 10:1, 1:10",additive
same,Combination response with taxotere,"[4]; ratios 1:10, 1:100, 1:1000 (Taxotere: MK-4)",additive
same,IC50,[5],333 ± 55 µM
